Results as given in US20140107109A1, “AMINO-DIHYDROTHIAZINE AND AMINO-DIOXIDO DIHYDROTHIAZINE COMPOUNDS AS BETA-SECRETASE ANTAGONISTS AND METHODS OF USE” (Amgen Inc., priority 2012, published 2014).
Like-named read-outs stand apart in the source and are kept apart here.

Columns and labels:
[1] = biological target: Beta Secretase enzyme (BACE1) (Homo sapiens, UniProt P56817); assay: In vitro enzymatic BACE FRET assay; format: biochemical; settings: read-out: BACE1 FRET assay IC50
Summary of the method: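 Readout: dequenched fluorescence (ex 488 nm/[…]) after neutralizing with Tris buffer. Reactions, begun by adding 50 nM quenched peptide substrate spanning the BACE cleavage site, were incubated one hour at pH 4.2 in 0.05 M acetate with 100 uM genapol and 10% final DMSO.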

Cathepsin D (Cat D) = biological target: T1, Cathepsin D (Cat D) (Homo sapiens, UniProt P07339); assay: In vitro enzymatic Cathepsin D (Cat D) FRET assay; format: biochemical
T1 construct: Recombinant Cat D was expressed in CHO cells; made in house; host or cells: CHO cells
Summary of the method: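 FRET read-out: a fluorophore/quencher-labelled peptide substrate is cleaved by 9 nM Cat D (recombinant, CHO-expressed) following a one-hour preincubation with inhibitor dilutions in DMSO. Tris buffer added to neutralize pH ends the reaction before fluorescence measurement.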

[2] = system: Aβ40 in conditioned medium of cells stably expressing Amyloid Precursor Protein (APP); assay: In vitro BACE cell-based assay (HEK cell assay), Aβ40 sandwich ELISA; settings: Homo sapiens, HEK293
Summary of the method: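 Aβ40 in conditioned medium was quantified by time-resolved fluorescence sandwich ELISA (pAb40 capture 3 h at 4 °C, biotin-6E10 detection 2 h at 4 °C) after 24 h compound exposure of APP-expressing cells. Doses spanned 10 points from 100 μM or 10 μM top, 0.1% DMSO; IC50 was derived from percent of control.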

T1 sequence (P07339 65-412, species assumed): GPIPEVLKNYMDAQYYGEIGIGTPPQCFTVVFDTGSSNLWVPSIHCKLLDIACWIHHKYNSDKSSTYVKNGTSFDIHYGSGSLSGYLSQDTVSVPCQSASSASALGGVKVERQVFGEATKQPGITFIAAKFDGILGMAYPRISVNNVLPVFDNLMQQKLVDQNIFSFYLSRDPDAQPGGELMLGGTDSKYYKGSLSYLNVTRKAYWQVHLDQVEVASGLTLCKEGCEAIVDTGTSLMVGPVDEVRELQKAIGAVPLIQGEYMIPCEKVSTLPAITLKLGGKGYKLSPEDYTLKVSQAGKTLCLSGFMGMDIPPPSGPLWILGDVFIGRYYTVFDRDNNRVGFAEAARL
Beta Secretase enzyme (BACE1), sequence (P56817 46-501): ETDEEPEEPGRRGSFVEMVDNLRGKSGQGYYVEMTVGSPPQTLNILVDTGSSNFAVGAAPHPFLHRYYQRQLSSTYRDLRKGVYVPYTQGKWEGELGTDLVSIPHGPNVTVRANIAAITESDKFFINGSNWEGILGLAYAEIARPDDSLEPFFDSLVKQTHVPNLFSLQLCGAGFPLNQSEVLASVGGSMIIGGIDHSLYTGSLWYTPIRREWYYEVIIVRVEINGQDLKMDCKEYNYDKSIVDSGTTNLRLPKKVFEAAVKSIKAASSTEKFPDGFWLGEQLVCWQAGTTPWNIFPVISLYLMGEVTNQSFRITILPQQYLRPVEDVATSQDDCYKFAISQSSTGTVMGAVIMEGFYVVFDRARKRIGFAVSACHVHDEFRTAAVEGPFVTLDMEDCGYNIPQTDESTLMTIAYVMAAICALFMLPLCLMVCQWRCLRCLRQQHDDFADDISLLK

Row | Structure (SMILES) | IC50 ([1]; average IC50, enzyme assay) [nM] | IC50 (Cathepsin D (Cat D); read-out: CatD IC50) [nM] | IC50 ([2]; average IC50, cell assay) [nM] | IC50 [1] [nM] | further results
1 | CC1(C)C(N)=N[C@](CF)(c2cc(NC(=O)c3ncc(C(F)(F)F)cc3Cl)ccc2F)CS1(=O)=O [Example 379, N-(3-((3S)-5-amino-3-(fluoromethyl)-6,6-dimethyl-1,1-dioxido-3,6-dihydro-2H-1,4-thiazin-3-yl)-4-fluorophenyl)-3-chloro-5-(trifluoromethyl)-2-pyridinecarboxamide] |  | 775000 |  | 0.99 | IC50 [2]: 11.5 nM
2 | COc1cc(F)c2c(Nc3ccc(F)c([C@]4(C)CS(=O)(=O)C(C)(C)C(N)=N4)c3)ncnc2c1 [Example 53, N-(3-((3R)-5-amino-3,6,6-trimethyl-1,1-dioxido-3,6-dihydro-2H-1,4-thiazin-3-yl)-4-fluorophenyl)-5-fluoro-7-methoxy-4-quinazolinamine] |  | 320000 |  | 739 | IC50 ([2]; Aβ40, 24 h incubation): 399 nM
3 | CC1(C)C(N)=N[C@](C)(c2cc(Nc3ncc(F)c4cc(C#N)cnc34)cnc2F)CS1(=O)=O [Example 221, 8-((5-((3R)-5-amino-3,6,6-trimethyl-1,1-dioxido-3,6-dihydro-2H-1,4-thiazin-3-yl)-6-fluoro-3-pyridinyl)amino)-5-fluoro-1,7-naphthyridine-3-carbonitrile] | 1.94 | 43100 | 5.8 |  | 
4 | Cc1cc(C(F)F)cnc1C(=O)Nc1ccc(F)c([C@]2(CF)CS(=O)(=O)C3(CCC3)C(N)=N2)c1 [Example 369, N-(3-((7S)-9-amino-7-(fluoromethyl)-5,5-dioxido-5-thia-8-azaspiro[3.5]non-8-en-7-yl)-4-fluorophenyl)-5-(difluoromethyl)-3-methyl-2-pyridinecarboxamide] |  | 233000 |  | 1.4 | IC50 [2]: 12.3 nM
5 | CC(C)COc1cnc2c(Nc3ccc(F)c([C@]4(CF)CS(=O)(=O)C(C)(C)C(N)=N4)c3)ncc(F)c2c1 [Example 436, N-(3-((3S)-5-amino-3-(fluoromethyl)-6,6-dimethyl-1,1-dioxido-3,6-dihydro-2H-1,4-thiazin-3-yl)-4-fluorophenyl)-5-fluoro-3-(2-methylpropoxy)-1,7-naphthyridin-8-amine] | 4.3 | 61600 | 626 |  | 
6 | Cc1nc(F)c([C@]2(C)CS(=O)(=O)C(C)(C)C(N)=N2)cc1Br [Example 184, (R)-5-Amino-3-(5-bromo-2-fluoro-6-methylpyridin-3-yl)-3,6,6-trimethyl-3,6-dihydro-2H-1,4-thiazine 1,1-dioxide] | 8110 |  | 3990 |  | IC50 (Cathepsin D (Cat D)): 127000 nM
7 | CC1(C)C(N)=N[C@](C)(c2cc(NC(=O)c3ncc(C#N)cc3Cl)ccc2F)CS1(=O)=O [Example 356, N-(3-((3R)-5-amino-3,6,6-trimethyl-1,1-dioxido-3,6-dihydro-2H-1,4-thiazin-3-yl)-4-fluorophenyl)-3-chloro-5-cyano-2-pyridinecarboxamide] | 0.35 | 710000 |  |  | IC50 ([2]; average IC50, HEK cell assay): 1.2 nM
8 | CC#CCOc1cnc2c(Nc3ccc(F)c([C@]4(C)CS(=O)(=O)C(C)(C)C(N)=N4)c3)nccc2c1 [Example 254, N-(3-((3R)-5-amino-3,6,6-trimethyl-1,1-dioxido-3,6-dihydro-2H-1,4-thiazin-3-yl)-4-fluorophenyl)-3-(2-butyn-1-yloxy)-1,7-naphthyridin-8-amine] | 0.6 | 354000 | 0.6 |  | 
9 | CC1(C)C(N)=N[C@](C)(c2cc(NC(=O)c3cnc(OCC(F)F)cn3)ccc2F)CS1(=O)=O [Example 314, N-(3-((3R)-5-amino-3,6,6-trimethyl-1,1-dioxido-3,6-dihydro-2H-1,4-thiazin-3-yl)-4-fluorophenyl)-5-(2,2-difluoroethoxy)-2-pyrazinecarboxamide] | 0.58 | 504000 |  |  | IC50 ([2]; average IC50, HEK cell assay): 5 nM
10 | CC1(C)C(N)=N[C@](C)(c2cc(Nc3nccc4cc(Cl)cnc34)cc(F)c2F)CS1(=O)=O [Example 69, (R)-5-Amino-3-(5-((3-chloro-1,7-naphthyridin-8-yl)amino)-2,3-difluorophenyl)-3,6,6-trimethyl-3,6-dihydro-2H-1,4-thiazine 1,1-dioxide] |  | 8560 |  | 0.4 | IC50 ([2]; Aβ40, 24 h incubation): 23.1 nM
11 | CC1(C)C(N)=N[C@](C)(c2cc(NC(=O)c3ccc(Cl)cn3)cc(F)c2F)CS1(=O)=O [Example 38, (R)—N-(3-(5-amino-3,6,6-trimethyl-1,1-dioxido-3,6-dihydro-2H-1,4-thiazin-3-yl)-4,5-difluorophenyl)-5-chloropicolinamide] |  | 72800 |  | 1 | IC50 ([2]; Aβ40, 24 h incubation): 6.5 nM

Further lines, with some results ahead:

Row | IC50 ([1]; average IC50, enzyme assay) [nM] | IC50 (Cathepsin D (Cat D); read-out: CatD IC50) [nM] | IC50 ([2]; average IC50, cell assay) [nM] | IC50 [1] [nM] | Structure (SMILES) | further results
12 | 549 | 540000 | 474 |  | Cc1cc(C#N)cnc1Oc1ccc(F)c([C@]2(C)CS(=O)(=O)C(C)(C)C(N)=N2)c1 [Example 271, 6-(3-((3R)-5-amino-3,6,6-trimethyl-1,1-dioxido-3,6-dihydro-2H-1,4-thiazin-3-yl)-4-fluorophenoxy)-5-methyl-3-pyridinecarbonitrile] | 
13 |  | 45600 |  | 13.8 | CC1(C)C(N)=N[C@@](C)(c2cc(Nc3noc4cc(Cl)cnc34)ccc2F)CS1(=O)=O [Example 78, (S)-5-Amino-3-(5-((6-chloroisoxazolo[4,5-b]pyridin-3-yl)amino)-2-fluorophenyl)-3,6,6-trimethyl-3,6-dihydro-2H-1,4-thiazine 1,1-dioxide] | IC50 ([2]; Aβ40, 24 h incubation): 94.4 nM
14 | 300 | 58300 | 574 |  | CC1(C)C(N)=N[C@](C)(c2cc(Oc3ccc4ccccc4n3)ccc2F)CS1(=O)=O [Example 261, (5R)-5-(2-fluoro-5-(2-quinolinyloxy)phenyl)-2,2,5-trimethyl-5,6-dihydro-2H-1,4-thiazin-3-amine 1,1-dioxide] | 
15 |  | 32100 |  |  | C[C@]1(F)C(N)=N[C@](C)(c2cc(Nc3ncc(F)c4cc(Cl)cnc34)ccc2F)CS1(=O)=O [Example 178, (3R,6R)-5-Amino-3-(5-((3-chloro-5-fluoro-1,7-naphthyridin-8-yl)amino)-2-fluorophenyl)-6-fluoro-3,6-dimethyl-3,6-dihydro-2H-1,4-thiazine 1,1-dioxide] | IC50 ([1]; average IC50): 0.38 nM; IC50 ([2]; average IC50, HEK cells): 379 nM
16 | 769 | 79100 | 1640 |  | CC1(C)C(N)=N[C@](C)(c2cc(Oc3ccc(F)c(C(F)(F)F)n3)ccc2F)CS1(=O)=O [Example 284, (5R)-5-(2-fluoro-5-((5-fluoro-6-(trifluoromethyl)-2-pyridinyl)oxy)phenyl)-2,2,5-trimethyl-5,6-dihydro-2H-1,4-thiazin-3-amine 1,1-dioxide] | 
17 |  | 69700 |  | 2100 | NC1=N[C@](CF)(c2cc(N)ccc2F)CS(=O)(=O)C12CCC2 [Example 417, (7S)-7-(5-amino-2-fluorophenyl)-7-(fluoromethyl)-5-thia-8-azaspiro[3.5]non-8-en-9-amine 5,5-dioxide] | IC50 [2]: 3650 nM
18 |  | > 400000 |  | 68 | COc1cnc2c(Nc3ccc(F)c([C@]4(C(F)F)CS(=O)(=O)C(C)(C)C(N)=N4)c3)nccc2c1 [Example 67, (S)-5-Amino-3-(difluoromethyl)-3-(2-fluoro-5-((3-methoxy-1,7-naphthyridin-8-yl)amino)phenyl)-6,6-dimethyl-3,6-dihydro-2H-1,4-thiazine 1,1-dioxide] | IC50 ([2]; Aβ40, 24 h incubation): 980 nM
19 |  | > 400000 |  |  | CC1[C@@](C)(c2cc(Br)ccc2F)N=C(N)[C@](C)(F)S1(=O)=O (stereo partly drawn) [Example 459, (2R,5R)-5-(5-bromo-2-fluorophenyl)-2-fluoro-2,5,6-trimethyl-5,6-dihydro-2H-1,4-thiazin-3-amine 1,1-dioxide] | IC50 ([1]; average IC50): 2300 nM; IC50 ([2]; average IC50, HEK cells): 5470 nM
